Results published in publication PMC6547681 (Nature Communications, 2019).
“And” between values parts separate entries of the source, which are not always exact repeats. Equal values may be shown once. Read-outs that look alike come from different tables or passages of the source.

Tested on: BCL-2 G101V
Assay: Steady-state competition SPR against immobilised BIMBH3 peptide, BCL-2 G101V
Assay type: binding, human
Details: for Ki: BCL-2 G101V
Protocol: SPR experiments were performed as previously described. […] The lowest concentrations used in direct binding experiments were 1 nM for BIAcore 4000 and 0.1 nM for BIAcore S200 instruments, concentrations below these were below the sensitivity thresholds for the instruments. […] Direct binding experiments were fitted to a 1:1 binding site kinetic model, fitting on and off rates, in BIAevaluation software. For competition experiments steady-state responses were determined in BIAevaluation software according to the software defaults in affinity evaluation mode averaging responses for 5 sec. […] All affinity measurements were performed in at least two independent experiments using independent protein preparations.

O=C(c1cc(-c2cc3c(cc2C(=O)N2Cc4ccccc4C[C@H]2CN2CCOCC2)OCO3)n2c1CCCC2)N(c1ccccc1)c1ccc(O)cc1 [S55746]
Raw data values in Figure 3g (SPR response) (S55746 concentration 40, BCL-2 concentration 60 nM, independent experiment 3): 48.7177 | Raw data values in Figure 3g (SPR response) (S55746 concentration 40, BCL-2 concentration 70 nM, independent experiment 1): 85.9498 | Raw data values in Figure 3g (SPR response) (S55746 concentration 40, BCL-2 concentration 70 nM, independent experiment 2): 301.246 | Raw data values in Figure 3g (SPR response) (S55746 concentration 40, BCL-2 concentration 70 nM, independent experiment 3): 49.6061 | Raw data values in Figure 3g (SPR response) (S55746 concentration 40, BCL-2 concentration 80 nM, independent experiment 1): 87.455 | Raw data values in Figure 3g (SPR response) (S55746 concentration 40, BCL-2 concentration 80 nM, independent experiment 2): 307.892 | Raw data values in Figure 3g (SPR response) (S55746 concentration 40, BCL-2 concentration 80 nM, independent experiment 3): 50.2962 | Raw data values in Figure 3g (SPR response) (S55746 concentration 40, BCL-2 concentration 100 nM, independent experiment 1): 89.2588 | Raw data values in Figure 3g (SPR response) (S55746 concentration 40, BCL-2 concentration 100 nM, independent experiment 2): 318.485 | Raw data values in Figure 3g (SPR response) (S55746 concentration 40, BCL-2 concentration 100 nM, independent experiment 3): 51.3212 | Raw data values in Figure 3g (SPR response) (S55746 concentration 40, BCL-2 concentration 150 nM, independent experiment 1): 91.8217 | Raw data values in Figure 3g (SPR response) (S55746 concentration 40, BCL-2 concentration 150 nM, independent experiment 2): 334.001 | Raw data values in Figure 3g (SPR response) (S55746 concentration 40, BCL-2 concentration 150 nM, independent experiment 3): 52.4759 | Raw data values in Figure 3g (SPR response) (S55746 concentration 40, BCL-2 concentration 200 nM, independent experiment 1): 93.5739 | Raw data values in Figure 3g (SPR response) (S55746 concentration 40, BCL-2 concentration 250 nM, independent experiment 2): 347.773 | Raw data values in Figure 3g (SPR response) (S55746 concentration 40, BCL-2 concentration 250 nM, independent experiment 3): 53.5471 | Raw data values in Figure 3g (SPR response) (S55746 concentration 60, BCL-2 concentration 10 nM, independent experiment 1): 47.4597 | Raw data values in Figure 3g (SPR response) (S55746 concentration 60, BCL-2 concentration 10 nM, independent experiment 2): 98.8052 | Raw data values in Figure 3g (SPR response) (S55746 concentration 60, BCL-2 concentration 20 nM, independent experiment 1): 62.0582 | Raw data values in Figure 3g (SPR response) (S55746 concentration 60, BCL-2 concentration 20 nM, independent experiment 2): 156.985 | Raw data values in Figure 3g (SPR response) (S55746 concentration 60, BCL-2 concentration 30 nM, independent experiment 1): 69.7854 | Raw data values in Figure 3g (SPR response) (S55746 concentration 60, BCL-2 concentration 30 nM, independent experiment 2): 196.195 | Raw data values in Figure 3g (SPR response) (S55746 concentration 60, BCL-2 concentration 40 nM, independent experiment 1): 76.161 | Raw data values in Figure 3g (SPR response) (S55746 concentration 60, BCL-2 concentration 40 nM, independent experiment 2): 224.521 | Raw data values in Figure 3g (SPR response) (S55746 concentration 60, BCL-2 concentration 50 nM, independent experiment 1): 79.3118 | Raw data values in Figure 3g (SPR response) (S55746 concentration 60, BCL-2 concentration 50 nM, independent experiment 2): 244.821 | Raw data values in Figure 3g (SPR response) (S55746 concentration 60, BCL-2 concentration 60 nM, independent experiment 1): 82.6237 | Raw data values in Figure 3g (SPR response) (S55746 concentration 60, BCL-2 concentration 60 nM, independent experiment 2): 261.933 | Raw data values in Figure 3g (SPR response) (S55746 concentration 60, BCL-2 concentration 70 nM, independent experiment 1): 84.8163 | Raw data values in Figure 3g (SPR response) (S55746 concentration 60, BCL-2 concentration 70 nM, independent experiment 2): 275.69 | Raw data values in Figure 3g (SPR response) (S55746 concentration 60, BCL-2 concentration 80 nM, independent experiment 1): 85.9361 | Raw data values in Figure 3g (SPR response) (S55746 concentration 60, BCL-2 concentration 80 nM, independent experiment 2): 286.55 | Raw data values in Figure 3g (SPR response) (S55746 concentration 60, BCL-2 concentration 100 nM, independent experiment 1): 88.8819 | Raw data values in Figure 3g (SPR response) (S55746 concentration 60, BCL-2 concentration 100 nM, independent experiment 2): 303.493 | Raw data values in Figure 3g (SPR response) (S55746 concentration 60, BCL-2 concentration 150 nM, independent experiment 1): 91.2891 | Raw data values in Figure 3g (SPR response) (S55746 concentration 60, BCL-2 concentration 150 nM, independent experiment 2): 325.735 | Raw data values in Figure 3g (SPR response) (S55746 concentration 60, BCL-2 concentration 200 nM, independent experiment 1): 93.4484 | Raw data values in Figure 3g (SPR response) (S55746 concentration 60, BCL-2 concentration 250 nM, independent experiment 2): 343.304 | Raw data values in Figure 3g (SPR response) (S55746 concentration 80, BCL-2 concentration 10 nM, independent experiment 3): 22.8907 | Raw data values in Figure 3g (SPR response) (S55746 concentration 80, BCL-2 concentration 20 nM, independent experiment 3): 32.1933 | Raw data values in Figure 3g (SPR response) (S55746 concentration 80, BCL-2 concentration 30 nM, independent experiment 3): 37.5379 | Raw data values in Figure 3g (SPR response) (S55746 concentration 80, BCL-2 concentration 40 nM, independent experiment 3): 41.1001 | Raw data values in Figure 3g (SPR response) (S55746 concentration 80, BCL-2 concentration 50 nM, independent experiment 3): 43.4737 | Raw data values in Figure 3g (SPR response) (S55746 concentration 80, BCL-2 concentration 60 nM, independent experiment 3): 45.424 | Raw data values in Figure 3g (SPR response) (S55746 concentration 80, BCL-2 concentration 70 nM, independent experiment 3): 46.908 | Raw data values in Figure 3g (SPR response) (S55746 concentration 80, BCL-2 concentration 80 nM, independent experiment 3): 48.0972 | Raw data values in Figure 3g (SPR response) (S55746 concentration 80, BCL-2 concentration 100 nM, independent experiment 3): 49.7546 | Raw data values in Figure 3g (SPR response) (S55746 concentration 80, BCL-2 concentration 150 nM, independent experiment 3): 51.7109 | Raw data values in Figure 3g (SPR response) (S55746 concentration 80, BCL-2 concentration 250 nM, independent experiment 3): 53.091 | Ki (read-out: S55746 KI (mean), competition vs BIMBH3 SPR surface, mean ± SD, n ≥ 2): 36 nM and 35.7 nM | Ki (read-out: S55746 KI, single independent experiments, independent experiments 1-3): 28.4 nM and 49.8 nM and 29 nM
